# Source: patent US20240109885A1, “2,3-DIHYDRO-1H-PYRROLO[3,2-B]PYRIDINE DERIVATIVE, PREPARATION METHOD THEREFOR, AND APPLICATION THEREOF” (Abbisko Therapeutics Co., Ltd, priority 2020, published 2024)
# Experiments:
# Assay type in all cases: cell-based
# [1] = target: Ba/F3 EGFR-D770-N771ins_SVD (Homo sapiens, UniProt P00533, DUP768-770, cells depend on it); test: Cell proliferation assay (CellTiter-Glo), Ba/F3 EGFR-D770-N771ins_SVD cells; details: 72 hrs, CTG assay, * = average of multiple measurements, read-out: Ba/F3 EGFR-D770-N771ins_SVD (nM), IC50 of cell proliferation
# Method in brief: (§1)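 Cells seeded overnight, then treated in triplicate with 9 concentrations (3.16-fold dilutions; 0.1% DMSO final) for 72 h at 37 °C, 5% CO2. Viability by CellTiter-Glo luminescence, normalised to cell and medium controls; IC50 (nM) from nonlinear sigmoidal fit.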
# A431 (EGFR-WT) = test: Cell proliferation assay (CellTiter-Glo), A431 cells; details: Homo sapiens, A-431, 72 hrs, CTG assay, * = average of multiple measurements
# Procedure: I. Cell proliferation assay (i) Reagents and consumables • Fetal bovine serum (FBS) (GBICO, Cat #10099-141); • CellTiter-Glo® Luminescent Cell Viability Assay Kit (Promega, Cat #G7572); • Black transparent flat-bottomed 96-well plate (Corning®, Cat #3603).
# • SpectraMax Multi-Label Microplate Detector MD, 2104-0010A; • CO2 incubator, Thermo Scientific 3100 Series; • Biosafety cabinet, Thermo Scientific, 1300 Series type A2; • Inverted microscope, Olympus, CKX41SF; • Siemens refrigerator KK25E76TI. (iii) Cell lines and culture conditions
# (iv) Experimental procedures 1. Cell culture and seeding: • (1) Cells in the logarithmic growth phase were harvested, and counted using a platelet counter. Cell viability was detected by the trypan blue exclusion assay to ensure that the cell viability was above 90%. • (2) The cell concentration was adjusted to achieve the final density; and 90 μL of the cell suspension was added to the 96-well plate. • (3) The cells were incubated in the 96-well plate overnight at 37° C. in the presence of 5% CO2 with 95% humidity. 2. TO benchmark data: • (1) 10 μL of PBS was added to each well of the TO flat plate containing the cells. • (2) The CTG reagent was thawed, and the cell plate was equilibrated to room temperature for 30 min. • (3) An equal volume of CTG solution was added to each well. • (4) The cells were shaken for 5 min on an orbital shaker for lysis. • (5) The cell plate was left at room temperature for 20 min to stabilize luminescent signals. • (6) The values of TO luminescent signals were read. 3. Compound dilution and addition • (1) According to the compound information table, a corresponding volume of DMSO was added to the corresponding compound powder to prepare a 10 mM stock solution. • (2) Compound solutions diluted at 1000 fold and 3.16 fold were prepared. • (3) The compound solution diluted at 1000 fold was diluted at 100 fold with PBS, to prepare the compound solutions at 10 fold in 9 concentrations, with the maximum concentration of […]; and the compound solution was diluted at 3.16 fold. 10 μL of medicament solution was added to each well of the seeded 96-well plate. Three replicate wells were provided for each concentration of the compound, and the final concentration of DMSO was 0.1%. • (4) Cells were placed in the 96-well plate containing the medicament and subsequently cultured for 72 hrs at 37° C. in the presence of 5% CO2 with 95% humidity, and then, CTG assay was conducted. 4. Reading of luminescent signals • (1) The CTG reagent was thawed, and the cell plate was equilibrated to room temperature for 30 min. • (2) An equal volume of CTG solution was added to each well. • (3) The cells were shaken for 5 min on an orbital shaker for lysis.
# (4) The cell plate was left at room temperature for 20 min to stabilize the luminescent signals. • (5) Luminescent values were read. Data processing
# The data were analyzed using software GraphPad Prism 7.0, and fitted by the nonlinear S-curve regression to obtain a dose-effect curve, based on which the IC50 value (unit: nM) was calculated, with the specific test results shown in Table 1.
# Cell viability (%)=(Lum test medicament-Lum culture medium control)/(Lum cell control-Lum culture medium control)×100%.
# [2] = target: Ba/F3 EGFR-V769_D770insASV (Homo sapiens, UniProt P00533, DUP767-769, cells depend on it); test: Cell proliferation assay (CellTiter-Glo), Ba/F3 EGFR-V769_D770insASV cells; details: 72 hrs, CTG assay, * = average of multiple measurements, read-out: Ba/F3 EGFR-V769_D770insASV (nM), IC50 of cell proliferation
# Method in brief: as §1
# Chain of Ba/F3 EGFR-V769_D770insASV (P00533 with tags, fused parts or gaps DUP767-769): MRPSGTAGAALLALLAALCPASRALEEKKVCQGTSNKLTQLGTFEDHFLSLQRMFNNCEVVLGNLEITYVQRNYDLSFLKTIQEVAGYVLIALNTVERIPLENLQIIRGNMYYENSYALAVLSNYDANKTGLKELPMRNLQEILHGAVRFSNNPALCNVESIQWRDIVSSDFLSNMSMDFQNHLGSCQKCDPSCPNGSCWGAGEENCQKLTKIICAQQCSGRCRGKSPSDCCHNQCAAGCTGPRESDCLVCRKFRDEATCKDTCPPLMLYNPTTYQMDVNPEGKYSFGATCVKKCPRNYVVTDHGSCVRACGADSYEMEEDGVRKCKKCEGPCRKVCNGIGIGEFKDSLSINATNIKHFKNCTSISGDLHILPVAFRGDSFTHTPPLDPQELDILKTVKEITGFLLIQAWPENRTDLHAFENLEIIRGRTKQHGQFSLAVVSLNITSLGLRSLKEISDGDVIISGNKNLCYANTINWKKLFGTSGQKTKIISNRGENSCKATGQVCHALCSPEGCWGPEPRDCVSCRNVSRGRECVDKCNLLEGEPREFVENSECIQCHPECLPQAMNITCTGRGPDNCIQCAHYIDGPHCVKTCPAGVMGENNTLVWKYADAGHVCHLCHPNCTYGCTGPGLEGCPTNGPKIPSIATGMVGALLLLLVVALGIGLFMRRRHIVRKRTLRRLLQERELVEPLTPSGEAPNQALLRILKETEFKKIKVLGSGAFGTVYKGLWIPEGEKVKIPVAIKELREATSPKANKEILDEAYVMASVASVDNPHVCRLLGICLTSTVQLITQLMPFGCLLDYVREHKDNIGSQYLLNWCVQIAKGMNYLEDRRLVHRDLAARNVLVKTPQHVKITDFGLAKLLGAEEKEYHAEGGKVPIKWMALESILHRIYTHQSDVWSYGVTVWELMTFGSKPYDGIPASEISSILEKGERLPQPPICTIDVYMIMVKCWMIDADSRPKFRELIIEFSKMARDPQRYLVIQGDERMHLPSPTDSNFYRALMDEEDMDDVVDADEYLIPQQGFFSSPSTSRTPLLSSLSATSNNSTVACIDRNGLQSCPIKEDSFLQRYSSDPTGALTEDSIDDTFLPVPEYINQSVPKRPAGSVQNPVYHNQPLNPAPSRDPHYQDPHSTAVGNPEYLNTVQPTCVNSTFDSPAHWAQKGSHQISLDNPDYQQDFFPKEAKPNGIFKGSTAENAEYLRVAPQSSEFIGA
# Chain of Ba/F3 EGFR-D770-N771ins_SVD (P00533 with tags, fused parts or gaps DUP768-770): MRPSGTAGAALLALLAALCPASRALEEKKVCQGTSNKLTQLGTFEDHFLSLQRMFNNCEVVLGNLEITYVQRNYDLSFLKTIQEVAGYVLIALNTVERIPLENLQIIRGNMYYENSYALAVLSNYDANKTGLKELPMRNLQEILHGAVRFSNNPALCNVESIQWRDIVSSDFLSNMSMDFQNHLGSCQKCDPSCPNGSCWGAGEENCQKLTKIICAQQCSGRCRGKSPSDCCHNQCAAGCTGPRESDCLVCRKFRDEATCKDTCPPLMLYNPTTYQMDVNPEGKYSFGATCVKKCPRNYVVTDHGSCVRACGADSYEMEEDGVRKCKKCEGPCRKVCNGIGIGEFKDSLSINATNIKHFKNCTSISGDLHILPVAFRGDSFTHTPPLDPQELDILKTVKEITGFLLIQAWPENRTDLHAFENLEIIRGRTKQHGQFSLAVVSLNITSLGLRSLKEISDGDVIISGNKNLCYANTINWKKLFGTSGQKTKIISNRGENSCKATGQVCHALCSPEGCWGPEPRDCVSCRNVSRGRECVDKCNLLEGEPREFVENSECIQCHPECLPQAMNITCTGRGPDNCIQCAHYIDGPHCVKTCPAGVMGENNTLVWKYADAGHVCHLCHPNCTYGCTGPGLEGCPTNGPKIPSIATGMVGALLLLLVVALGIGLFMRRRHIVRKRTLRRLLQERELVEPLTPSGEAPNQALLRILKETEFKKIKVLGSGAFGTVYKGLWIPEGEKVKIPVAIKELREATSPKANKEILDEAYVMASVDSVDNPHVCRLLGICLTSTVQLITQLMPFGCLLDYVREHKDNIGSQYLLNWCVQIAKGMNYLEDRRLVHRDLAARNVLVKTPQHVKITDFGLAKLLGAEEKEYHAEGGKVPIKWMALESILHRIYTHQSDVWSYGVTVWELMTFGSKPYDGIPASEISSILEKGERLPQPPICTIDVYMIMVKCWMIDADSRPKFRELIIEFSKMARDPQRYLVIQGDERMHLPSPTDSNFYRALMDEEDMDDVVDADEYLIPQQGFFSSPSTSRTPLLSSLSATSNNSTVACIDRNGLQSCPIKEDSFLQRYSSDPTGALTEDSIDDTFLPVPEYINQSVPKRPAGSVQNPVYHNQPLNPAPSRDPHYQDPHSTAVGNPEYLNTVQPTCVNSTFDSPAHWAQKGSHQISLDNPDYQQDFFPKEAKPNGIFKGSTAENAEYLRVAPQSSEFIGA
Structure (SMILES),GI50 [1],IC50 (A431 (EGFR-WT)),GI50 [2]
"C=CC(=O)Nc1cc(Nc2cc(N3CC(C)(C)c4ncccc43)ncn2)c(OC)cc1N1CCC[C@@H]1CN(C)C [Example 12, (R)-N-(5-((6-(3,3-dimethyl-2,3-dihydro-1H-pyrrolo[3,2-b]pyridin-1-yl)pyrimidin-4-yl)amino)-2-(2-((dimethylamino)methyl)pyrrolidin-1-yl)-4-methoxyphenyl)acrylamide]",35.3 nM,89.9 nM,70.8 nM
"C=CC(=O)Nc1cc(Nc2cc(N3CC(C)(C)c4ncccc43)ccn2)c(OC)cc1N1CCC[C@@H]1CN(C)C [Example 4, (R)-N-(5-((4-(3,3-dimethyl-2,3-dihydro-1H-pyrrolo[3,2-b]pyridin-1-yl)pyridin-2-yl)amino)-2-(2-((dimethylamino)methyl)pyrrolidin-1-yl)-4-methoxyphenyl)acrylamide]",47.2 nM,964 nM,83.1 nM
"C=CC(=O)Nc1cc(Nc2nccc(N3CC4(CCCCC4)c4nc(C)ccc43)n2)c(OC)cc1N(C)CCN(C)C [Example 32, N-(2-((2-(dimethylamino)ethyl) (methyl)amino)-4-methoxy-5-((4-(5′-methylspiro[cyclohexane-1,3′-pyrrolo[3,2-b]pyridin]-1′(2′H)-yl)pyrimidin-2-yl)amino)phenyl)acrylamide]",35.7 nM,53.7 nM,95.8 nM
"C=CC(=O)Nc1cc(Nc2cc(N3CC(C)(C)c4nc(C)ccc43)ncn2)c(OC)cc1N(C)CCN(C)C [Example 11, N-(2-((2-(dimethylamino)ethyl) (methyl)amino)-4-methoxy-5-((6-(3,3,5-trimethyl-2,3-dihydro-1H-pyrrolo[3,2-b]pyridin-1-yl)pyrimidin-4-yl)amino)phenyl)acrylamide]",40.4 nM,293 nM,73.9 nM
"C=CC(=O)Nc1cc(Nc2nccc(N3CC(C)(C)c4nc(C5CC5)ccc43)n2)c(OC)cc1N(C)CCN(C)C [Example 17, N-(5-((4-(5-cyclopropyl-3,3-dimethyl-2,3-dihydro-1H-pyrrolo[3,2-b]pyridin-1-yl)pyrimidin-2-yl)amino)-2-((2-(dimethylamino)ethyl) (methyl)amino)-4-methoxyphenyl) acrylamide]",33.9 nM,125 nM,54.6 nM

# The next compounds have a lower GI50 [1] than those just listed; values first:
GI50 [1],IC50 (A431 (EGFR-WT)),GI50 [2],Structure (SMILES)
14.8 nM,96.9 nM,26.3 nM,"C=CC(=O)Nc1cc(Nc2nccc(N3CC4(CCC4)c4nc(C)ccc43)n2)c(OC)nc1N(C)CCN(C)C [Example 53, N-(2-((2-(dimethylamino)ethyl) (methyl)amino)-6-methoxy-5-((4-(5′-methylspiro[cyclobutane-1,3′-pyrrolo[3,2-b]pyridin]-1′(2′H)-yl)pyrimidin-2-yl)amino)pyridin-3-yl) acrylamide]"
17.1 nM,494 nM,31.9 nM,"C=CC(=O)Nc1cc(Nc2nccc(N3CC4(CCC4)c4nc(C)ccc43)n2)c(OC(F)F)cc1N(C)CCN(C)C [Example 64, N-(4-(difluoromethoxy)-2-((2-(dimethylamino)ethyl)(methyl)amino)-5-((4-(5′-methylspiro[cyclo-butane-1,3′-pyrrolo[3,2-b]pyridin]-1′(2′H)-yl)pyrimidin-2-yl)amino)phenyl)acrylamide]"
14.6 nM,82.4 nM,32.1 nM,"C=CC(=O)Nc1cc(Nc2nccc(N3CC(C)(C)c4nc(-c5cnn(C)c5)ccc43)n2)c(OC)cc1N(C)CCN(C)C [Example 50, N-(5-((4-(3,3-dimethyl-5-(1-methyl-1H-pyrazol-4-yl)-2,3-dihydro-1H-pyrrolo[3,2-b]pyridin-1-yl)pyrimidin-2-yl)amino)-2-((2-(dimethylamino)ethyl)(methyl)amino)-4-methoxyphenyl)acrylamide]"
